Where two headings read alike, the source gives them in different places.
Tests used:
[1] = tested on: RXF 1781L; assay: 2D monolayer CellTiter-Blue viability, renal cancer RXF 1781L; assay type: cell-based; details: for Test/Control (%) at Drug Concentration: 72 h; for IC50: RXF 1781L
Method: Mebendazole was tested in vitro across a panel of 12 tumor cell lines of ovarian and renal cancer by using a 2D monolayer assay. […] OVXF 899L and RXF 486L are P-gp expressing, multidrug resistant cell lines.
Anti-tumor activity is expressed as absolute and relative IC50/70 values, calculated by 4-parameter non-linear curve fit.

[2] = tested on: NBXF SH-SY5Y; assay: 2D monolayer CellTiter-Blue viability, neuroblastoma SH-SY5Y; assay type: cell-based; details: 72 h
Method: (§1) Seventeen compounds, including mebendazole (Batch no. […] Efficacy of compounds was assessed using CellTiter-Blue® Cell Viability Assay. Anti-tumor activity is expressed as absolute and relative IC50 and IC70 values, calculated by non-linear regression analysis.

[3] = in vitro; details: human; for half-life at 1 μM: cryopreserved hepatocytes; for hepatocyte CLint at 1 µM: cryopreserved hepatocytes (suspension)
Method: The amount of test compound remaining at each time point was analysed by LC-MS/MS. Appropriate control compounds were also incubated.
The final incubation volume was 500 μL. Appropriate control compounds were included, alongside appropriate vehicle control.
The reactions were stopped by transferring 50 μL of incubate to 100 μL acetonitrile containing internal standard at the appropriate time points (0, 5, 10, 20, 40 and 60 min). The termination plates were centrifuged at 2500 rpm at 4° C. for 30 min to precipitate the protein.

[4] = tested on: SXFS 1301; assay: 2D monolayer CellTiter-Blue viability, soft tissue sarcoma SXFS 1301; assay type: cell-based; details: 72 h
Method: as §1

[5] = tested on: SXFO 678; assay: 2D monolayer CellTiter-Blue viability, osteosarcoma SXFO 678; assay type: cell-based; details: 72 h
Method: as §1

IC50 ([1]; RXF 1781, 72 h, read-out: Abs. IC50): 395 nM | IC50 ([1]; RXF 1781, 72 h, read-out: Rel. IC50): 309 nM | half-life at 1 μM [3]: 1.92 h | hepatocyte CLint at 1 µM [3]: 12.1 ± 0.601 µL/min/1e6 cells | hepatocyte CLint at 1 µM ([3]; with cimetidine 30 µM): 24.8 ± 1.82 µL/min/1e6 cells | hepatocyte CLint at 1 µM ([3]; with cimetidine 100 µM): 18 ± 1.19 µL/min/1e6 cells | hepatocyte CLint at 1 µM ([3]; with cimetidine 300 µM): 24.8 ± 2.36 µL/min/1e6 cells | hepatocyte CLint at 1 µM ([3]; with fluvoxamine 3 µM): 8.14 ± 1.53 µL/min/1e6 cells | hepatocyte CLint at 1 µM ([3]; with fluvoxamine 10 μM): 10.8 ± 2.32 µL/min/1e6 cells | half-life at 1 μM ([3]; with cimetidine 30 μM): 0.932 h | half-life at 1 μM ([3]; with cimetidine 100 μM): 1.29 h | half-life at 1 μM ([3]; with cimetidine 300 μM): 0.932 h | half-life at 1 μM ([3]; with fluvoxamine 3 μM): 2.83 h | half-life at 1 μM ([3]; with fluvoxamine 10 μM): 2.13 h | half-life at 1 μM ([3]; with mexiletine 10 μM): 5.1 h | half-life at 1 μM ([3]; with mexiletine 30 μM): 2.2 h | half-life at 1 μM ([3]; with mexiletine 100 μM): 2 h
SMILES: COC(=O)Nc1nc2ccc(C(=O)c3ccccc3)cc2[nH]1 [Mebendazole, methyl N-(6-benzoyl-1H-benzimidazol-2-yl)carbamate]
Test/Control (%) at Drug Concentration ([1]; RXF 1781, 1.0E−03 μM): 101% | Test/Control (%) at Drug Concentration ([1]; RXF 1781, 1.0E−04 μM): 98% | Test/Control (%) at Drug Concentration ([1]; RXF 1781, 3.2E+00 μM): 32% | Test/Control (%) at Drug Concentration ([1]; RXF 1781, 3.2E−01 μM): 61% | Test/Control (%) at Drug Concentration ([1]; RXF 1781, 3.2E−02 μM): 95% | Test/Control (%) at Drug Concentration ([1]; RXF 1781, 3.2E−03 μM): 95% | Test/Control (%) at Drug Concentration ([1]; RXF 1781, 3.2E−04 μM): 100% | Abs. IC70 ([1]; RXF 1781, 72 h): 978 nM | Rel. IC70 ([1]; RXF 1781, 72 h): 410 nM | Bot. (%) ([1]; RXF 1781, 72 h, curve fit): 28% | Top (%) ([1]; RXF 1781, 72 h, curve fit): 96% | Test/Control (%) at Drug Concentration ([2]; 1.0E+00 μM): 1% | Test/Control (%) at Drug Concentration ([2]; 1.0E+01 μM): 0% | Test/Control (%) at Drug Concentration ([2]; 1.0E+02 μM): −1% | Test/Control (%) at Drug Concentration ([2]; 1.0E−01 μM): 63% | Test/Control (%) at Drug Concentration ([2]; 1.0E−02 μM): 81% | Test/Control (%) at Drug Concentration ([2]; 3.2E+00 μM): 1% | Test/Control (%) at Drug Concentration ([2]; 3.2E+01 μM): 0% | Test/Control (%) at Drug Concentration ([2]; 3.2E−01 μM): 6% | Test/Control (%) at Drug Concentration ([2]; 3.2E−02 μM): 78% | Test/Control (%) at Drug Concentration ([2]; 3.2E−03 μM): 94% | Test/Control (%) at Drug Concentration ([4]; SXFS 1301, 1.0E+00 μM): 35% | Test/Control (%) at Drug Concentration ([4]; SXFS 1301, 1.0E+01 μM): 38% | Test/Control (%) at Drug Concentration ([4]; SXFS 1301, 1.0E+02 μM): 8% | Test/Control (%) at Drug Concentration ([4]; SXFS 1301, 1.0E−01 μM): 84% | Test/Control (%) at Drug Concentration ([4]; SXFS 1301, 1.0E−02 μM): 106% | Test/Control (%) at Drug Concentration ([4]; SXFS 1301, 3.2E+00 μM): 33% | Test/Control (%) at Drug Concentration ([4]; SXFS 1301, 3.2E+01 μM): 36% | Test/Control (%) at Drug Concentration ([4]; SXFS 1301, 3.2E−01 μM): 55% | Test/Control (%) at Drug Concentration ([4]; SXFS 1301, 3.2E−02 μM): 98% | Test/Control (%) at Drug Concentration ([4]; SXFS 1301, 3.2E−03 μM): 101% | Test/Control (%) at Drug Concentration ([5]; SXFO 678, 1.0E+00 μM): 11% | Test/Control (%) at Drug Concentration ([5]; SXFO 678, 1.0E+01 μM): 28% | Test/Control (%) at Drug Concentration ([5]; SXFO 678, 1.0E+02 μM): 11% | Test/Control (%) at Drug Concentration ([5]; SXFO 678, 1.0E−01 μM): 64% | Test/Control (%) at Drug Concentration ([5]; SXFO 678, 1.0E−02 μM): 87% | Test/Control (%) at Drug Concentration ([5]; SXFO 678, 3.2E+00 μM): 22% | Test/Control (%) at Drug Concentration ([5]; SXFO 678, 3.2E+01 μM): 21% | Test/Control (%) at Drug Concentration ([5]; SXFO 678, 3.2E−01 μM): 14% | Test/Control (%) at Drug Concentration ([5]; SXFO 678, 3.2E−02 μM): 88% | Test/Control (%) at Drug Concentration ([5]; SXFO 678, 3.2E−03 μM): 90%

Reference: patent US20220125765A1, “PHARMACEUTICAL COMBINATIONS COMPRISING MEBENDAZOLE AND A STRONG OR MODERATE CYP1A2 INHIBITOR” (ZEPHAPHARM LTD, priority 2019, published 2022)
